Test [1] has as its system ICAM-1, P-selectin and VCAM-1 on HBMEC. As to the kind of experiment: Immunofluorescence staining of HBMEC after T cell-rolling. The class given is cell-based, human. The protocol: After rolling and adhesion of T cells on HBMEC or HUVEC under flow conditions, endothelial cells were fixed using 150 μl of 4% paraformaldehyde solution (#P-6148, Sigma-Aldrich) for 30 min at 4° C. μ-slides were rinsed with 150 μl of D-PBS and subjected to immunofluorescence staining. HBMEC were first blocked with 150 μl of avidin blocking reagent (#PHA-70871, reagent 1, Dianova) for 10 min at room temperature, washed with 150 μl of D-PBS followed by incubation with 150 μl of biotin blocking reagent (#PHA-70871, reagent 2, Dianova). All following staining procedures were performed in 150 μl of D-PBS with 5% FBS at room temperature in the dark, and washing steps were done in 150 μl of D-PBS. μ-slides were incubated with 5 μg/ml polyclonal rabbit anti-human VCAM-1 (#106777, abcam) for 1 h. After washing, 20 μg/ml goat anti-rabbit IgG-DyLight350 was added for 1 h followed by washing and incubation with 15 μg/ml mouse anti-human P-selectin IgG1 (#BBA30, R&D Systems) for 2 h. After washing, goat anti-mouse IgG-Alexa488 (1:100) (#A10680, Invitrogen) was added for 1 h. […] VCAM-1 staining was monitored with a CFL EPI-FL Filter Block UV-2A (#MBE41200, Nikon), P-selectin staining with a CFL EPI-FL Filter Block GFP-B (#MBE44740, Nikon), and ICAM-1 staining with an EPI-FL Filter Block Cy3 (#MXU96213, Nikon). […]

For test [2], the system named is recombinant human ICAM-1. The experiment in a line: Flow chamber: T cell-rolling on recombinant ICAM-1, semi short-term conditions. It is filed as cell-based. The conditions noted are these: freshly isolated T cells, +AMG 103 10 ng/ml, t=45 min; coated at 12.5 μg/ml, with blocking; control −AMG 103 383±144. The protocol: (§1) Recombinant proteins (rhICAM-1 #ADP4-050, rhVCAM-1 #ADP5-050 or rhP-selectin #ADP3-050, R&D Systems) were dissolved in ddH2O according to the manufacturer's instructions. Prior to rolling experiments recombinant proteins were diluted in Dulbecco's PBS with Ca^2+ and Mg^2+ (#L1815, Biochrom) and coated onto a μ-slide VI^0.4 Luer ibiTreat (#80606, ibidi) over night at 4° C. Before usage slides were washed three times with Dulbecco's PBS and blocked where indicated with 20% FBS (#10270, Gibco) in PBS for 2 h at room temperature. Blocking solution was replaced by RPMI 1640 medium (#FG1215, Biochrom) without supplements.
(§2) Isolation and characterization of human peripheral blood mononuclear cells (PBMC) and T cells from blood were performed as described in Example 2 (p. 48, 1-31).
(§3) For rolling experiments using freshly isolated T cells, these cells were resuspended in RPMI 1640 medium (#FG1215, Biochrom) without supplements to a final concentration of 1×10^6 cells/ml at the start of the experiment (t=0 min; addition of 10 ng/ml Blinatumomab (AMG 103)) and incubated for 35 min at 37° C. and 5% CO2. Cells were then filled in a perfusion set “white” (#10963, ibidi) which was connected to both a fluidic unit and the μ-slide and image sequences of 45 sec duration were recorded at t=40 min, 45 min, and 50 min as described in Example 2 (p. 50, 18-23). […]

Test [3] deals with recombinant human VCAM-1. The experiment in a line: Flow chamber: T cell-rolling on recombinant VCAM-1, semi short-term conditions. The class given is cell-based. The conditions noted are these: freshly isolated T cells. The method, then:
as §1, §2, §3

Test [4] deals with recombinant human P-selectin. The experiment in a line: Flow chamber: T cell-rolling on recombinant P-selectin, semi short-term conditions. It is filed as cell-based. The conditions noted are these: +AMG 103 10 ng/ml, coated at 20 μg/ml. The protocol: as §1
Isolation and characterization of human peripheral blood mononuclear cells (PBMC) and T cells from blood were performed as described in Example 2 (p. 48, 1-31). […]
as §3

As for “Blinatumomab: recombinant CD19×CD3 bispecific scFv antibody consisting of four immunoglobulin variable domains assembled into a single polypeptide chain”, the “surface expression of adhesion molecules on HBMEC” value in test [1] (after T cell-rolling with Blinatumomab-stimulated T cells, 120 min) is “increased surface expression of adhesion molecules ICAM-1, P-selectin and VCAM-1”. Moreover, the “cell surface expression of P-selectin on HBMEC” value in test [1] (histamine-stimulated HBMEC, Blinatumomab added, no PPS) is on record as “increased”. Besides, the “mean T cell-rolling velocity±SD” value was determined as 314±79 μm/sec in test [2]; 205±45 μm/sec in test [3] (+AMG 103 10 ng/ml with vehicle DMSO, t=40 min, coated at 20 μg/ml, control −AMG 103 259±35); 353±72 μm/sec in test [3] (+AMG 103 10 ng/ml, t=45 min, coated at 10 μg/ml, with blocking, control −AMG 103 418±136); 413±104 μm/sec in test [4] (Jurkat E6.1 T cells, t=45 min, control −AMG 103 500±81); 293±73 μm/sec in test [4] (freshly isolated T cells, t=50 min, with blocking, control −AMG 103 402±115).

The values are drawn from patent publication US9688760B2, “Anti-leukocyte adhesion for the mitigation of potential adverse events caused by CD3-specific binding domains” (AMGEN RESEARCH (MUNICH) GMBH, priority 2013, dated 2017).
